Experimental data from US20230146455A1, “TREATMENT OF INFLAMMATORY DISEASES WITH PEPTIDES AND PHARMACEUTICAL COMPOSITIONS” (Yuyu Pharma, Inc., priority 2020, published 2023).
Several values for one entry are separate records, joined by “and”; a condition that tells them apart may be missing. Equal entries are not always repeated. Where a SMILES comes first, the peptide text is derived from it. [ ]: non-standard residue; d: D form. Hyp = O=C(O)[C@@H]1C[C@@H](O)CN1

Tested on: IL-4
Assay: Example 9 Luminex, LPS hPBMCs: IL-4
Format: cell-based, human
Protocol: Treatment Human PBMCs were pretreated with YY-101, YDE-011 and YDE-043 or reference compound; Xiidra® at various concentration (ranging from 1 nM to 100 uM) for 2 h before stimulation. An equal volume of 0.5% DMSO was used as a vehicle control. Then, the cells were treated with LPS at 5 ug/ml. The supernatants from treated cells were harvested at 24 h and placed in a 96 well for Luminex cytokine & chemokine profiling using a Luminex 200 multiplex assay (Luminex; R&D system, USA).
The main study arm with triplicate wells per group in a 24-well plate: • 1. Blank • 2. PBMC: 0.5% DMSO • 3. PBMC+LPS (5 ug/ml) • 4. PBMC+YY-101 100 uM • 5. PBMC+YY-101 10 uM • 6. PBMC+YY-101 1 uM • 7. PBMC+YY-101 0.1 uM • 8. PBMC+YY-101 0.01 uM • 9. PBMC+LPS (5 ug/ml)+Xiidra®100 uM • 10. PBMC+LPS (5 ug/ml)+Xiidra® 10 uM • 11. PBMC+LPS (5 ug/ml)+Xiidra® 1 uM • 12. PBMC+LPS (5 ug/ml)+Xiidra®0.1 uM • 13. PBMC+LPS (5 ug/ml)+Xiidra®0.01 uM • 14. PBMC+LPS (5 ug/ml)+Xiidra®0.001 uM • 15. PBMC+LPS (5 ug/ml)+YY-101 100 uM • 16. PBMC+LPS (5 ug/ml)+YY-101 10 uM • 17. PBMC+LPS (5 ug/ml)+YY-101 1 uM • 18. PBMC+LPS (5 ug/ml)+YY-101 0.1 uM • 19. PBMC+LPS (5 ug/ml)+YY-101 0.01 uM • 20. PBMC+LPS (5 ug/ml)+YY-101 0.001 uM • 21. PBMC+LPS (5 ug/ml)+YDE-011 100 uM • 22. PBMC+LPS (5 ug/ml)+YDE-011 10 uM • 23. PBMC+LPS (5 ug/ml)+YDE-011 1 uM • 24. PBMC+LPS (5 ug/ml)+YDE-011 0.1 uM • 25. PBMC+LPS (5 ug/ml)+YDE-011 0.01 uM • 26. PBMC+LPS (5 ug/ml)+YDE-011 0.001 uM • 27. PBMC+LPS (5 ug/ml)+YDE-043 100 uM • 28. PBMC+LPS (5 ug/ml)+YDE-043 10 uM • 29. PBMC+LPS (5 ug/ml)+YDE-043 1 uM • 30. PBMC+LPS (5 ug/ml)+YDE-043 0.1 uM • 31. PBMC+LPS (5 ug/ml)+YDE-043 0.01 uM • 32. PBMC+LPS (5 ug/ml)+YDE-043 0.001 uM
Multiplex assay was used to measure 30 cytokines and chemokines. The 1:2, 1:10 and 1:200 diluted cell supernatant and serial dilution of the standard were dispensed into a 96 well plate at 50 ul/well. Then, the pre-mixed cocktail of antibody-coated magnetic beads was dispensed at 50 ul/well and incubated at room temperature for 2 h in a horizontal orbital microplate shaker at 800±500 rpm. The beads were washed using a magnetic device to prevent loss. The biotin-antibody was dispensed in 50 ul of each well and incubated at room temperature for 1 h in a shaker at 800±500 rpm. After washing, streptavidin-PE was added at 50 ul/well and incubated at room temperature for 30 min in a shaker under the same conditions. Finally, after washing, wash buffer (100 ul/well) was added to the plate and incubated in a shaker for 2 min. The Luminex™ 200 setting were set according to the manufacturer's protocol. The data was calculated with a standard five-parameter logistic nonlinear regression analysis of the data (xPonent software 4.2, USA). The levels of cytokine/chemokine are normalized to the live cell counts (1×10^5 cells/mL) and presented as concentrations per mL (pg/mL or ng/mL).

[1] = PBMC + LPS(5 ug/ml) + test article 0.001 uM, Mean
[2] = PBMC + LPS(5 ug/ml) + test article 0.001 uM, single replicates
[3] = PBMC + LPS(5 ug/ml) + test article 0.01 uM, Mean
[4] = PBMC + LPS(5 ug/ml) + test article 0.01 uM, single replicates
[5] = PBMC + LPS(5 ug/ml) + test article 0.1 uM, Mean
[6] = PBMC + LPS(5 ug/ml) + test article 0.1 uM, single replicates
[7] = PBMC + LPS(5 ug/ml) + test article 1 uM, Mean
[8] = PBMC + LPS(5 ug/ml) + test article 1 uM, single replicates
[9] = PBMC + LPS(5 ug/ml) + test article 10 uM, Mean
[10] = PBMC + LPS(5 ug/ml) + test article 10 uM, single replicates
[11] = PBMC + LPS(5 ug/ml) + test article 100 uM, Mean
[12] = PBMC + LPS(5 ug/ml) + test article 100 uM, single replicates
[13] = PBMC + test article 0.01 uM, no LPS, Mean
[14] = PBMC + test article 0.01 uM, no LPS, single replicates
[15] = PBMC + test article 0.1 uM, no LPS, Mean
[16] = PBMC + test article 0.1 uM, no LPS, single replicates
[17] = PBMC + test article 1 uM, no LPS, Mean
[18] = PBMC + test article 1 uM, no LPS, single replicates
[19] = PBMC + test article 10 uM, no LPS, Mean
[20] = PBMC + test article 10 uM, no LPS, single replicates
[21] = PBMC + test article 100 uM, no LPS, Mean
[22] = PBMC + test article 100 uM, no LPS, single replicates

In the case of `CC(C)C[C@H](NC(=O)CNC(=O)[C@H](CC(=O)O)NC(=O)[C@H](CCC(N)=O)NC(=O)CNC(=O)[C@@H]1C[C@@H](O)CN1)C(=O)N[C@@H](C)C(=O)NCC(=O)N1CCC[C@H]1C(=O)N[C@@H](CCCCN)C(=O)O` [YY-101] (H-[Hyp]GQDGLAGPK-OH; N-terminus and C-terminus assumed), the “Concentration, Bead name: IL-4” value [1] is reported as 26.0 pg/mL, the “MFI, Bead name: IL-4” value [1] is reported as 1.0 and the “conc/live cell, Bead name: IL-4” value [1] is reported as 4.0 pg/10^5. For the same compound, the “Concentration, Bead name: IL-4” value [2] was 18.4 pg/mL and 33.2 pg/mL and 26.4 pg/mL, the “MFI, Bead name: IL-4” value [2] was 0.0 and 2.0 and 1.0 and the “conc/live cell, Bead name: IL-4” value [2] was 3.2 pg/10^5 and 4.7 pg/10^5 and 4.0 pg/10^5. The “Concentration, Bead name: IL-4” value [3] was 33.2 pg/mL, the “MFI, Bead name: IL-4” value [3] was 2.0 and the “conc/live cell, Bead name: IL-4” value [3] was 5.4 pg/10^5. The “Concentration, Bead name: IL-4” value [4] was 33.2 pg/mL, the “MFI, Bead name: IL-4” value [4] was 2.0 and the “conc/live cell, Bead name: IL-4” value [4] was 5.2 pg/10^5 and 5.5 pg/10^5 and 5.4 pg/10^5. The “Concentration, Bead name: IL-4” value [5] was 39.2 pg/mL, the “MFI, Bead name: IL-4” value [5] was 3.0 and the “conc/live cell, Bead name: IL-4” value [5] was 6.8 pg/10^5. For the same compound, the “Concentration, Bead name: IL-4” value [6] was 39.4 pg/mL and 45.1 pg/mL and 33.2 pg/mL, the “MFI, Bead name: IL-4” value [6] was 3.0 and 4.0 and 2.0 and the “conc/live cell, Bead name: IL-4” value [6] was 6.4 pg/10^5 and 8.7 pg/10^5 and 5.4 pg/10^5. For the same compound, the “Concentration, Bead name: IL-4” value [7] was 33.2 pg/mL, the “MFI, Bead name: IL-4” value [7] was 2.0 and the “conc/live cell, Bead name: IL-4” value [7] was 5.1 pg/10^5. The “Concentration, Bead name: IL-4” value [8] was 33.2 pg/mL, the “MFI, Bead name: IL-4” value [8] was 2.0 and the “conc/live cell, Bead name: IL-4” value [8] was 5.3 pg/10^5 and 4.7 pg/10^5 and 5.4 pg/10^5. For the same compound, the “Concentration, Bead name: IL-4” value [9] was 23.7 pg/mL, the “MFI, Bead name: IL-4” value [9] was 0.7 and the “conc/live cell, Bead name: IL-4” value [9] was 3.6 pg/10^5. The “Concentration, Bead name: IL-4” value [10] was 26.4 pg/ml (2×) and 18.4 pg/ml, the “MFI, Bead name: IL-4” value [10] was 1.0 (2×) and 0.0 and the “conc/live cell, Bead name: IL-4” value [10] was 4.4 pg/10^5 and 4.1 pg/10^5 and 2.4 pg/10^5. The “Concentration, Bead name: IL-4” value [11] was 14.8 pg/mL, the “MFI, Bead name: IL-4” value [11] was −0.3 and the “conc/live cell, Bead name: IL-4” value [11] was 2.5 pg/10^5. The “Concentration, Bead name: IL-4” value [12] was 18.4 pg/ml (2×) and 7.7 pg/ml, the “MFI, Bead name: IL-4” value [12] was 0.0 (2×) and −1.0 and the “conc/live cell, Bead name: IL-4” value [12] was 2.9 pg/10^5 and 3.0 pg/10^5 and 1.5 pg/10^5. The “Concentration, Bead name: IL-4” value [13] was 27.9 pg/mL, the “MFI, Bead name: IL-4” value [13] was 1.3 and the “conc/live cell, Bead name: IL-4” value [13] was 5.6 pg/10^5. The “Concentration, Bead name: IL-4” value [14] was 22.6 pg/mL and 33.2 pg/mL, the “MFI, Bead name: IL-4” value [14] was 0.5 and 2.0 and the “conc/live cell, Bead name: IL-4” value [14] was 4.3 pg/10^5 and 6.9 pg/10^5. For the same compound, the “Concentration, Bead name: IL-4” value [15] was 29.8 pg/mL, the “MFI, Bead name: IL-4” value [15] was 1.5 and the “conc/live cell, Bead name: IL-4” value [15] was 5.9 pg/10^5. For the same compound, the “Concentration, Bead name: IL-4” value [16] was 26.4 pg/mL and 33.2 pg/mL, the “MFI, Bead name: IL-4” value [16] was 1.0 and 2.0 and the “conc/live cell, Bead name: IL-4” value [16] was 6.0 pg/10^5 and 5.7 pg/10^5. The “Concentration, Bead name: IL-4” value [17] was 18.4 pg/mL, the “MFI, Bead name: IL-4” value [17] was 0.0 and the “conc/live cell, Bead name: IL-4” value [17] was 3.3 pg/10^5. The “Concentration, Bead name: IL-4” value [18] was 18.4 pg/mL, the “MFI, Bead name: IL-4” value [18] was 0.0 and the “conc/live cell, Bead name: IL-4” value [18] was 3.3 pg/10^5. The “Concentration, Bead name: IL-4” value [19] was 47.4 pg/mL, the “MFI, Bead name: IL-4” value [19] was 4.5 and the “conc/live cell, Bead name: IL-4” value [19] was 7.6 pg/10^5. For the same compound, the “Concentration, Bead name: IL-4” value [20] was 55.5 pg/mL and 39.4 pg/mL, the “MFI, Bead name: IL-4” value [20] was 6.0 and 3.0 and the “conc/live cell, Bead name: IL-4” value [20] was 8.7 pg/10^5 and 6.5 pg/10^5. The “Concentration, Bead name: IL-4” value [21] was 13.0 pg/mL, the “MFI, Bead name: IL-4” value [21] was −0.5 and the “conc/live cell, Bead name: IL-4” value [21] was 1.9 pg/10^5. The “Concentration, Bead name: IL-4” value [22] was 7.7 pg/mL and 18.4 pg/mL, the “MFI, Bead name: IL-4” value [22] was −1.0 and 0.0 and the “conc/live cell, Bead name: IL-4” value [22] was 1.2 pg/10^5 and 2.6 pg/10^5.
